# Reference: ChEMBL document CHEMBL4390652, “Design, biological evaluation and X-ray crystallography of nanomolar multifunctional ligands targeting simultaneously acetylcholinesterase and glycogen synthase kinase-3” (Eur J Med Chem, 2019)
# Tests used:
# MDA-MB-231 = assay: Cytotoxicity against human MDA-MB-231 cells assessed as growth inhibition incubated for 48 hrs by Hoechst 33342 staining based assay; format: cell-based; conditions: MDA-MB-231, 48 h
# [1] = Cytotoxicity against human SH-SY5Y cells assessed as reduction in cell viability at 100 uM incubated for 24 hrs by MTT assay relative to untreated cells; format: cell-based; conditions: read-out: INH
# [2] = tested on: Tyrosine-protein kinase ABL1 (Homo sapiens), P00519 [Q252H]; assay: Binding affinity to human non-phosphorylated ABL1 Q252H mutant (S229 to K512 residues) expressed in mammalian expression system assessed as residual binding level at 10 uM by Kinomescan method relative to control
# [3] = target: Serine/threonine-protein kinase BRSK1 (Homo sapiens) (UniProt Q8TDC3); assay: Binding affinity to wild-type human partial length BRSK1 (M1 to E754 residues) expressed in bacterial expression system assessed as residual binding level at 10 uM by Kinomescan method relative to control
# [4] = target: Cyclin-dependent kinase 3 (Homo sapiens) (UniProt Q00526); assay: Binding affinity to wild-type human full length CDK3 (M1 to H305 residues) expressed in bacterial expression system assessed as residual binding level at 10 uM by Kinomescan method relative to control
# [5] = target: Dual specificity protein kinase CLK2 (Homo sapiens) (UniProt P49760); assay: Binding affinity to wild-type human partial length CLK2 (D144 to R498 residues) expressed in bacterial expression system assessed as residual binding level at 10 uM by Kinomescan method relative to control
# [6] = target: Rhodopsin kinase GRK7 (Homo sapiens) (UniProt Q8WTQ7); assay: Binding affinity to wild-type human full length GRK7 (M1 to L553 residues) expressed in mammalian expression system assessed as residual binding level at 10 uM by Kinomescan method relative to control
# [7] = target: Hormonally up-regulated neu tumor-associated kinase (Homo sapiens) (UniProt P57058); assay: Binding affinity to wild-type human partial length HUNK (A31 to K354 residues) expressed in bacterial expression system assessed as residual binding level at 10 uM by Kinomescan method relative to control
# [8] = target: Serine/threonine-protein kinase ICK (Homo sapiens) (UniProt Q9UPZ9); assay: Binding affinity to wild-type human partial length ICK (M1 to P314 residues) expressed in mammalian expression system assessed as residual binding level at 10 uM by Kinomescan method relative to control
# [9] = target: LIM domain kinase 1 (Homo sapiens) (UniProt P53667); assay: Binding affinity to wild-type human full length LIMK1 (M1 to D647 residues) expressed in bacterial expression system assessed as residual binding level at 10 uM by Kinomescan method relative to control
# [10] = target: Mitogen-activated protein kinase kinase kinase 13 (Homo sapiens) (UniProt O43283); assay: Binding affinity to wild-type human full length LZK (M1 to W966 residues) expressed in mammalian expression system assessed as residual binding level at 10 uM by Kinomescan method relative to control
# [11] = target: Mitogen-activated protein kinase kinase kinase kinase 3 (Homo sapiens) (UniProt Q8IVH8); assay: Binding affinity to wild-type human partial length MAP4K3 (M1 to D301 residues) expressed in bacterial expression system assessed as residual binding level at 10 uM by Kinomescan method relative to control
# [12] = target: Microtubule-associated serine/threonine-protein kinase 1 (Homo sapiens) (UniProt Q9Y2H9); assay: Binding affinity to wild-type human partial length MAST1 (S346 to V730 residues) expressed in mammalian expression system assessed as residual binding level at 10 uM by Kinomescan method relative to control
# [13] = tested on: Hepatocyte growth factor receptor (Homo sapiens), P08581 [Y1235D]; assay: Binding affinity to human partial length MET Y1235D mutant (D1010 to S1367 residues) expressed in bacterial expression system assessed as residual binding level at 10 uM by Kinomescan method relative to control
# [14] = target: Serine/threonine-protein kinase MRCK beta (Homo sapiens) (UniProt Q9Y5S2); assay: Binding affinity to wild-type human partial length MRCKB (L56 to S417 residues) expressed in bacterial expression system assessed as residual binding level at 10 uM by Kinomescan method relative to control
# [15] = target: Serine/threonine-protein kinase Nek10 (Homo sapiens) (UniProt Q6ZWH5); assay: Binding affinity to wild-type human partial length NEK10 (L488 to R809 residues) expressed in mammalian expression system assessed as residual binding level at 10 uM by Kinomescan method relative to control
# [16] = target: Serine/threonine-protein kinase Nek11 (Homo sapiens) (UniProt Q8NG66); assay: Binding affinity to wild-type human partial length NEK11 (M1 to E313 residues) expressed in mammalian expression system assessed as residual binding level at 10 uM by Kinomescan method relative to control
# [17] = target: Serine/threonine-protein kinase NLK (Homo sapiens) (UniProt Q9UBE8); assay: Binding affinity to wild-type human full length NLK (M13 to E527 residues) expressed in bacterial expression system assessed as residual binding level at 10 uM by Kinomescan method relative to control
# [18] = target: Phosphatidylinositol 4,5-bisphosphate 3-kinase catalytic subunit delta isoform (Homo sapiens) (UniProt O00329); assay: Binding affinity to wild-type human partial length PIK3CD (R108 to Q1044 residues) expressed in mammalian expression system assessed as residual binding level at 10 uM by Kinomescan method relative to control
# [19] = target: Serine/threonine-protein kinase N1 (Homo sapiens) (UniProt Q16512); assay: Binding affinity to wild-type human partial length PKN1 (E598 to C948 residues) expressed in bacterial expression system assessed as residual binding level at 10 uM by Kinomescan method relative to control
# [20] = target: Serine/threonine-protein kinase D2 (Homo sapiens) (UniProt Q9BZL6); assay: Binding affinity to wild-type human partial length PRKD2 (A519 to E838 residues) expressed in bacterial expression system assessed as residual binding level at 10 uM by Kinomescan method relative to control
# [21] = target: Serine/threonine-protein kinase D3 (Homo sapiens) (UniProt O94806); assay: Binding affinity to wild-type human partial length PRKD3 (S543 to E863 residues) expressed in bacterial expression system assessed as residual binding level at 10 uM by Kinomescan method relative to control
# [22] = target: SRSF protein kinase 1 (Homo sapiens) (UniProt Q96SB4); assay: Binding affinity to wild-type human full length SRPK1 (M1 to S655 residues) expressed in bacterial expression system assessed as residual binding level at 10 uM by Kinomescan method relative to control
# [23] = target: Serine/threonine-protein kinase 35 (Homo sapiens) (UniProt Q8TDR2); assay: Binding affinity to wild-type human partial length STK35 (G182 to A534 residues) expressed in bacterial expression system assessed as residual binding level at 10 uM by Kinomescan method relative to control
# [24] = target: Wee1-like protein kinase 2 (Homo sapiens) (UniProt P0C1S8); assay: Binding affinity to wild-type human partial length WEE2 (M204 to K492 residues) expressed in bacterial expression system assessed as residual binding level at 10 uM by Kinomescan method relative to control
# Chain of Serine/threonine-protein kinase Nek10 (Homo sapiens) (Q6ZWH5 whole entry, the tested form may be a part): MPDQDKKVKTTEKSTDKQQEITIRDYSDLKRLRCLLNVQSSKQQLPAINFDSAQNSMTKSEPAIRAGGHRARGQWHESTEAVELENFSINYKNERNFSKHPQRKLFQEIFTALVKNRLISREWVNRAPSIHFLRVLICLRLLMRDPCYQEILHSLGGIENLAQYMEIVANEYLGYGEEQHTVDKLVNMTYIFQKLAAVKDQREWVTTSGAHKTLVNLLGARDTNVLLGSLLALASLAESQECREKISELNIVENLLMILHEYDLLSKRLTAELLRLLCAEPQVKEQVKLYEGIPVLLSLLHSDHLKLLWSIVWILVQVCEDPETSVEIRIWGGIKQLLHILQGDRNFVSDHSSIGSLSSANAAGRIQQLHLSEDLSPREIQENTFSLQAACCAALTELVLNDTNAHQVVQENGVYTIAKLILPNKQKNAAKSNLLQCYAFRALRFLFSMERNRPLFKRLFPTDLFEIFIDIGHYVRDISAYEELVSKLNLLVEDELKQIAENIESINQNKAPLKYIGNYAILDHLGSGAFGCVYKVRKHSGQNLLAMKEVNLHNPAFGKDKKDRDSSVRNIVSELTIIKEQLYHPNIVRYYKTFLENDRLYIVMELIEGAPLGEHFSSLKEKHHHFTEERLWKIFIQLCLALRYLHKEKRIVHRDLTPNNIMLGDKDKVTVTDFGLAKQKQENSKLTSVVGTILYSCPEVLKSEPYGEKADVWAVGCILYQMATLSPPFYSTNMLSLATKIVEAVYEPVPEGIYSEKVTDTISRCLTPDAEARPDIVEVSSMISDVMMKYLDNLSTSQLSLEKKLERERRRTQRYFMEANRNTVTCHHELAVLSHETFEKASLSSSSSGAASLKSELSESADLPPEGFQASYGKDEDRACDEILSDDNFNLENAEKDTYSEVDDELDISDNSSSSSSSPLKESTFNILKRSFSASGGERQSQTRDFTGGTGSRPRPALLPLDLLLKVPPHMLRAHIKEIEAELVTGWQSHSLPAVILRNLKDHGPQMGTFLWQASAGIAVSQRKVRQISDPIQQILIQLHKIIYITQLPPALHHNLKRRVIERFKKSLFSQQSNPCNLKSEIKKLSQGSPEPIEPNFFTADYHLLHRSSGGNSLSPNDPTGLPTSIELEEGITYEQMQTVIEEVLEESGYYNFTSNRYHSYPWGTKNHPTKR
# Chain of Phosphatidylinositol 4,5-bisphosphate 3-kinase catalytic subunit delta isoform (Homo sapiens) (O00329 whole entry, the tested form may be a part, canonical isoform): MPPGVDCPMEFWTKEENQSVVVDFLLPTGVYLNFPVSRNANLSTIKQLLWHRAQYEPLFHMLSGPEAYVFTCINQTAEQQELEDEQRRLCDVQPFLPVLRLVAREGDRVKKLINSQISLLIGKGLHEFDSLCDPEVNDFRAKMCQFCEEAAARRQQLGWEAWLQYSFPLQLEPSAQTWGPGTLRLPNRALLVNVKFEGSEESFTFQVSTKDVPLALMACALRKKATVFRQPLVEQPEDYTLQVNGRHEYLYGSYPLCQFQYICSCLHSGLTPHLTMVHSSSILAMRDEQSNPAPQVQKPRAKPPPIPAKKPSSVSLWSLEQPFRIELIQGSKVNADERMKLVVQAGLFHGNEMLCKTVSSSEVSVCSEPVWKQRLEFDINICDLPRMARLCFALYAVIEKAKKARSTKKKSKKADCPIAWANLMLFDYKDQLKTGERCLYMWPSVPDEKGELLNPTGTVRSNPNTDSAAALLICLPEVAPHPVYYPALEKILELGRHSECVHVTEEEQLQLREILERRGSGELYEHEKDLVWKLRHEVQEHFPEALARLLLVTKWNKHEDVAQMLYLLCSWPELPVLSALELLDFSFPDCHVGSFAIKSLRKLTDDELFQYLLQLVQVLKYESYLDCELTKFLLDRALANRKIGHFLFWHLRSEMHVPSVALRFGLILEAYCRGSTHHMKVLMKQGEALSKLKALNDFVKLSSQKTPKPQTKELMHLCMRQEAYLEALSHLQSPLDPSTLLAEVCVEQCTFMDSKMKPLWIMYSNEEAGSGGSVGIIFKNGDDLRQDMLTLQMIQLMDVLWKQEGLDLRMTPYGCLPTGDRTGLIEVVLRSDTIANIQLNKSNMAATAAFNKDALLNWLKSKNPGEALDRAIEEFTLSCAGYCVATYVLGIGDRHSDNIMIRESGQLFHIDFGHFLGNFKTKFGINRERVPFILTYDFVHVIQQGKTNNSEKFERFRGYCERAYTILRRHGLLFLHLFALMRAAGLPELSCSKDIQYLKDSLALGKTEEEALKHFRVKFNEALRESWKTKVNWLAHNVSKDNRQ
# Chain of Mitogen-activated protein kinase kinase kinase 13 (Homo sapiens) (O43283 whole entry, the tested form may be a part): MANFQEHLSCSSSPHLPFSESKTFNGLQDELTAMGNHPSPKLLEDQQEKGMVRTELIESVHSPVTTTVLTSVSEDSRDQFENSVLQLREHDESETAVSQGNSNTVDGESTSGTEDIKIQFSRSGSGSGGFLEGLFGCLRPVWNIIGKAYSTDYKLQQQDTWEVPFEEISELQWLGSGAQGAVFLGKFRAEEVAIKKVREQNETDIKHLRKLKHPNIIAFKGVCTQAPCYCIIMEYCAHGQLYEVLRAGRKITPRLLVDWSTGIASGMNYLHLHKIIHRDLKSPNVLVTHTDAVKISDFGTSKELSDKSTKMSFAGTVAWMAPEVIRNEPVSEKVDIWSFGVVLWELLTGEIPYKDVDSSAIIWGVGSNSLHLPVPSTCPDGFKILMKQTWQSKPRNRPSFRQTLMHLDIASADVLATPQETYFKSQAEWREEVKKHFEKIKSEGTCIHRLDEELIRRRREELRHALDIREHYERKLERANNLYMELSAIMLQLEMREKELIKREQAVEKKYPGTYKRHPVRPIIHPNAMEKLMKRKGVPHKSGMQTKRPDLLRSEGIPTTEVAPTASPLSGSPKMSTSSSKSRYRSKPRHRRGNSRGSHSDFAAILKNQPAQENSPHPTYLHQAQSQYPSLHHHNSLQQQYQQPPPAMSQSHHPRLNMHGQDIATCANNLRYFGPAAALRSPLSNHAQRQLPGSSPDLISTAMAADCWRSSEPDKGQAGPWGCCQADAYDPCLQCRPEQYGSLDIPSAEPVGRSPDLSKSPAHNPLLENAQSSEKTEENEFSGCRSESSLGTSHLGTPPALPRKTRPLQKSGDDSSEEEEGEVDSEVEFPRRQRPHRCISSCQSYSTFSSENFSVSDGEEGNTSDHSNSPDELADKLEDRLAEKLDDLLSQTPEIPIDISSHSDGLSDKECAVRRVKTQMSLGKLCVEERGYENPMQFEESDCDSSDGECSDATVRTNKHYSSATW
# Chain of Cyclin-dependent kinase 3 (Homo sapiens) (Q00526 whole entry, looked up, the tested form may be a part): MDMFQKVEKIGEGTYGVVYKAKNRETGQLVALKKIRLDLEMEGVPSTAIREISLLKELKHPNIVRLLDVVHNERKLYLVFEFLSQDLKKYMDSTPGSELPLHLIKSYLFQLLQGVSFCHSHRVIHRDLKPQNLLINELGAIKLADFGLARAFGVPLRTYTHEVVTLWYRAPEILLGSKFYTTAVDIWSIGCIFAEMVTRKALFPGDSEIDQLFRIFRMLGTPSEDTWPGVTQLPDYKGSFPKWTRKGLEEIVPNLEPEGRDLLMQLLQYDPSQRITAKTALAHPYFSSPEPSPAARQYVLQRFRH
# Chain of Serine/threonine-protein kinase N1 (Homo sapiens) (Q16512 2-942 limits assumed): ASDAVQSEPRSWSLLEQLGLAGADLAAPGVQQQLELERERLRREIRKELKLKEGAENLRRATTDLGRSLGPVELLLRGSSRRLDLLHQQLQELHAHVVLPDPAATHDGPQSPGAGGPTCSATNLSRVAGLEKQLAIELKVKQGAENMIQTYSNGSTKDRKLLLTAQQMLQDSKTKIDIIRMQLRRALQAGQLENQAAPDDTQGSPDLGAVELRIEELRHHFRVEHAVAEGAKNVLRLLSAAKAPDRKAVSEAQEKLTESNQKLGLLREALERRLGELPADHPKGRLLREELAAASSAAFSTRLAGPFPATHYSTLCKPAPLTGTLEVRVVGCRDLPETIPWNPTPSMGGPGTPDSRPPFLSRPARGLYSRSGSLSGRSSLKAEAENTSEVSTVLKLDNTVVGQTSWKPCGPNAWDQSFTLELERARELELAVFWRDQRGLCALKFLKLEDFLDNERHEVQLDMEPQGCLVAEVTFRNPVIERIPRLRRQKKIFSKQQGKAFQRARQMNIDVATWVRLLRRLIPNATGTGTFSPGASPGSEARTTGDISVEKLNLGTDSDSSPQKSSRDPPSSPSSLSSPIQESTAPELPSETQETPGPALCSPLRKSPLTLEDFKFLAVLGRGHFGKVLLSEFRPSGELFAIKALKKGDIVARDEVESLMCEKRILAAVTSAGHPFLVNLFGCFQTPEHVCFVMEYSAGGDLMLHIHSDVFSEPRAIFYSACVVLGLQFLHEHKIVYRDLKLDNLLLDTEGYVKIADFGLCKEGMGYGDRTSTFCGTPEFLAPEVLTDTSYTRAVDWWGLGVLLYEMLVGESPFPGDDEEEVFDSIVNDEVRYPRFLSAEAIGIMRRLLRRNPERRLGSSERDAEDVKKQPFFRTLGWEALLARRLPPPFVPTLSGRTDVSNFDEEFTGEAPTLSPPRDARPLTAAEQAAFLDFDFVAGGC
# Chain of Serine/threonine-protein kinase NLK (Homo sapiens) (Q9UBE8 whole entry, the tested form may be a part, canonical isoform): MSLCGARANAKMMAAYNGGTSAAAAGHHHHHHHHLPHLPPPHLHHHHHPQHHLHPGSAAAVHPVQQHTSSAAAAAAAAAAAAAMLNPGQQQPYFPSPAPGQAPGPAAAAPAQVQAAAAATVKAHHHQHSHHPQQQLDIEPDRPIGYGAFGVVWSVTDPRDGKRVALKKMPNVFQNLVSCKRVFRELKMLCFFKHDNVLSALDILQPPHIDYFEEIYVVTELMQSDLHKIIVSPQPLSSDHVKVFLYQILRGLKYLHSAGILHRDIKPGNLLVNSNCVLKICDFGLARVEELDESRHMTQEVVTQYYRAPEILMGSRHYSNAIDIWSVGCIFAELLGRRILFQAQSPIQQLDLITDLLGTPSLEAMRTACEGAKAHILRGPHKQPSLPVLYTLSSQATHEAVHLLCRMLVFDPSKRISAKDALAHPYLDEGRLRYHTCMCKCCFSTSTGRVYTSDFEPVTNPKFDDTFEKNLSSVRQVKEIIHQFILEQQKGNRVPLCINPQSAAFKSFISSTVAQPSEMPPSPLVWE
compound,measurement,setting,value
O=C(Nc1cc(-c2cn(CCNc3c4c(nc5ccccc35)CCCC4)nn2)ccn1)Nc1cccc2c1C1CCCCN1C2=O (racemic),IC50,MDA-MB-231,2 µM
same,"cytotoxicity at 24 h, 100 µM",[1],50%
same,Activity,[2],4.5%
same,Activity,[3],66%
same,Activity,[4],90%
same,Activity,[5],24%
same,Activity,[6],61%
same,Activity,[7],100%
same,Activity,[8],7.5%
same,Activity,[9],100%
same,Activity,[10],13%
same,Activity,[11],21%
same,Activity,[12],100%
same,Activity,[13],88%
same,Activity,[14],99%
same,Activity,[15],2.5%
same,Activity,[16],100%
same,Activity,[17],70%
same,Activity,[18],100%
same,Activity,[19],18%
same,Activity,[20],31%
same,Activity,[21],12%
same,Activity,[22],8.2%
same,Activity,[23],97%
same,Activity,[24],100%
